Assay results taken from US20240366569A1, “COMBINATIONS FOR TREATING CANCER” (Purdue Pharmaceutical Products L.P., priority 2023, published 2024).
Entries after “also recorded” stand apart in the source; their conditions may differ.

How the values were obtained:
[1] = test system: renal cell carcinoma (RCC); settings: cited from earlier work
[2] = patients with advanced melanoma; cited from earlier work
metastatic melanoma = settings: cited from earlier work
[3] = Myelosuppression on administration of Tinostamustine at the indicated dosage ranges; type: in vivo; settings: below 40 mg/m^2 body surface area
Procedure: More particularly, the dosage ranges of Tinostamustine described herein may preferably avoid Tinostamustine causing cytotoxicity to immune cells. For comparison, the doses at which Tinostamustine are administered in accordance with the present invention are below those normally used to achieve an anti-cancer neoplastic effect (e.g. via inducing cytotoxicity in tumour cells) with Tinostamustine as a monotherapy (typically […]).

[4] = Phase 1B clinical trial of Tinostamustine in combination with Nivolumab: safety, tolerability, recommended dose; type: in vivo, human
Excerpt: The clinical study relates to an open-label, single-centre, phase-1B clinical trial to determine the safety, tolerability, recommended dose and anti-cancer efficacy of Tinostamustine in combination with the anti-PD-1 monoclonal antibody (mAb), Nivolumab in patients with advanced melanoma receiving standard-of-care treatment. Tinostamustine is a compound having the following structural formula: […]
A total of 17 patients with advanced melanoma were recruited to a Phase IB study to characterise the safety, tolerability, recommended dose and preliminary efficacy in the treatment of cancer of Tinostamustine in combination with the immune checkpoint inhibitor, Nivolumab.
Tinostamustine was administered intravenously. Four patients were administered tinostamustine at a dose of 15 mg/m^2 (referred to as dose level 1—DL1) for each cycle. Thirteen patients were administered with Tinostamustine at a dose of 30 mg/m^2 (referred to as dose level 2—DL2) for each cycle.
The primary endpoint of the study was dose limiting toxicity (DLT) observed during the first 6 weeks of trial treatment. […]

[5] = MC38 model: tolerability and body weight; type: in vivo, female C57BL/6 mice
Procedure: After tumour cell inoculation, the animals were checked daily for morbidity and mortality. During routine monitoring, the animals were checked for treatment effects on tumour growth, behaviour such as mobility, food and water consumption, body weight gain/loss (Body weights) were measured twice a week after randomization), eye/hair matting and any other abnormalities. Mortality and observed clinical signs were recorded for individual animals in detail.
Tumour volumes were measured twice a week after randomization in two dimensions using a caliper, and the volume was expressed in mm3 using the formula: “V=(L×W×W)/2, where V was tumour volume, L was tumour length (the longest tumor dimension) and W was tumour width (the longest tumour dimension perpendicular to L). Dosing as well as tumour and body weight measurements were conducted in a Laminar Flow Cabinet. The body weights and tumour volumes were measured by using StudyDirector™ software (version 3.1.399.19).

[6] = test system: MC38 subcutaneous murine colorectal syngeneic model; test: MC38 subcutaneous murine colorectal syngeneic model: tumour burden and survival; type: in vivo, female C57BL/6 mice
Procedure: Specifically, the effects of the combined therapy Tinostamustine and an […] antibody in the treatment of the MC38 subcutaneous murine colorectal syngeneic model in female C57BL/6 mice following 3 dose cycles was assessed. MC38 is a commonly used murine model for colorectal carcinoma.
Six groups of mice were randomly allocated a group, hereafter referred to as Groups 1 to 6, as in Table 3.
Tinostamustine was administered intravenously, specifically by slow intravenous injection at a rate of ˜60 s per mouse. Two groups of mice were administered tinostamustine at a dose of 5 mg/kg once weekly, either as a monotherapy (Group 3) or as a combination therapy (Group 5). […]
The MC38 cells were maintained in vitro with DMEM medium supplemented with 10% fetal bovine serum at 37° C. in an atmosphere of 5% CO2 in air. The cells in exponential growth phase were harvested and quantitated by cell counter before tumour inoculation. […]
Tumour volumes were measured twice a week after randomization in two dimensions using a caliper, and the volume was expressed in mm3 using the formula: “V=(L×W×W)/2, where V was tumour volume, L was tumour length (the longest tumor dimension) and W was tumour width (the longest tumour dimension perpendicular to L). […] The body weights and tumour volumes were measured by using StudyDirector™ software (version 3.1.399.19). […]

advanced melanoma [7] = settings: cited from earlier work
advanced melanoma [8] = settings: in vivo; cited from earlier work

Molecule | response rate [1] | high-grade adverse events [2] | response rate (metastatic melanoma) | myelosuppression [3] | safety concerns ([4]; Tinostamustine doses between 10 mg/m^2 and 30 mg/m^2 body surface area) | recommended dose ([4]; in combination with Nivolumab 3 mg/kg) [mg/m^2] | tolerability ([5]; 3 weeks of treatment) | body weight ([5]; mean body weight during treatment) | tumour burden / anti-tumour effect ([6]; dose group not specified) | survival of mice ([6]; vs vehicle control) | objective response rate (advanced melanoma [7]; first-line) [%] | progression-free survival (advanced melanoma [7]; first-line) [months] | overall survival improved by (advanced melanoma [7]; versus dacarbazine, first-line) [%] | overall survival HR (advanced melanoma [7]; versus dacarbazine, p<0.001) | progression-free survival HR (advanced melanoma [7]; versus dacarbazine, p<0.001) | progression-free survival improved by (advanced melanoma [7]; versus dacarbazine) [%] | median overall survival (advanced melanoma [8])
Ipilimumab: anti-CTLA-4 monoclonal antibody | minimal activity | 28 % of patients | 15-20% | – | – | – | – | – | – | – | – | – | – | – | – | – | –
Cn1c(CCCCCCC(=O)NO)nc2cc(N(CCCl)CCCl)ccc21 [Tinostamustine] | – | – | – | no myelosuppression | without any significant safety concerns | 30 | well-tolerated | no loss of body weight; also recorded: weight gain | has anti-tumour effect | significantly prolonged the survival; also recorded: increases survival | – | – | – | – | – | – | –
Nivolumab | ~25% | 23 % of patients | 43% | – | – | – | – | – | – | – | 40.0 | 5.1 | 58 | 0.42 | 0.43 | 57 | not reached
